Data on five compounds can be found in ChEMBL document CHEMBL4118220, “Design, synthesis and biological evaluation of phosphopeptides as Polo-like kinase 1 Polo-box domain inhibitors” (Bioorg Med Chem, 2018).

Square brackets hold non-standard residues; d marks the D form. Peptide text beside a SMILES is read from it. Phe(4-NO2) = N[C@@H](Cc1ccc([N+](=O)[O-])cc1)C(=O)O; Phe(3,4-Cl2) = N[C@@H](Cc1ccc(Cl)c(Cl)c1)C(=O)O; Phe(4-F) = N[C@@H](Cc1ccc(F)cc1)C(=O)O; pT = C[C@@H](OP(=O)(O)O)[C@H](N)C(=O)O

For assay [1], the target named is Serine/threonine-protein kinase PLK3 (Homo sapiens, UniProt Q9H4B4). Nature of the assay: Inhibition of FITC-GPLATSpTPKNG-OH binding to Plk3 PBD (unknown origin) after 30 mins by fluorescence polarization assay. On the technique in general: In fluorescence polarisation assays a small probe gives low polarisation when free and higher when bound to something large.
Sequence of Serine/threonine-protein kinase PLK3 (Q9H4B4 whole entry): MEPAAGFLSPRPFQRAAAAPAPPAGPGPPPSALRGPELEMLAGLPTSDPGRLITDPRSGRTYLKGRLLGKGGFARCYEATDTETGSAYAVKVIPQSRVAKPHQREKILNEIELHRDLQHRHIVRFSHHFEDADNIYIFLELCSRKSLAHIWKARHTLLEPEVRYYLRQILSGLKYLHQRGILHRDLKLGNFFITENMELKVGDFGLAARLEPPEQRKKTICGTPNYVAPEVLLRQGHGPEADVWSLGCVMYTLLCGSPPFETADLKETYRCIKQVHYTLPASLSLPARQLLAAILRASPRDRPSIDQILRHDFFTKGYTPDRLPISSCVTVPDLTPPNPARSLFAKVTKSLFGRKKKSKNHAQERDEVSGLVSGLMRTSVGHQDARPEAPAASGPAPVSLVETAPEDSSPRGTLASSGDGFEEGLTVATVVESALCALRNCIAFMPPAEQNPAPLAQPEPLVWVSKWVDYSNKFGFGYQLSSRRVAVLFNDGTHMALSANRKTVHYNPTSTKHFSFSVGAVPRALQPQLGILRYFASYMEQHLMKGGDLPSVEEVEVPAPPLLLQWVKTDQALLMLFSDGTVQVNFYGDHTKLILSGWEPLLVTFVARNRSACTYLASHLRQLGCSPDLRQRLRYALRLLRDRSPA

For assay [2], the target named is Serine/threonine-protein kinase PLK2 (Homo sapiens, UniProt Q9NYY3). The assay is described as follows: Inhibition of FITC-GPMQTSpTPKNG-OH binding to Plk2 PBD (unknown origin) after 30 mins by fluorescence polarization assay.
Sequence of Serine/threonine-protein kinase PLK2 (Q9NYY3 whole entry): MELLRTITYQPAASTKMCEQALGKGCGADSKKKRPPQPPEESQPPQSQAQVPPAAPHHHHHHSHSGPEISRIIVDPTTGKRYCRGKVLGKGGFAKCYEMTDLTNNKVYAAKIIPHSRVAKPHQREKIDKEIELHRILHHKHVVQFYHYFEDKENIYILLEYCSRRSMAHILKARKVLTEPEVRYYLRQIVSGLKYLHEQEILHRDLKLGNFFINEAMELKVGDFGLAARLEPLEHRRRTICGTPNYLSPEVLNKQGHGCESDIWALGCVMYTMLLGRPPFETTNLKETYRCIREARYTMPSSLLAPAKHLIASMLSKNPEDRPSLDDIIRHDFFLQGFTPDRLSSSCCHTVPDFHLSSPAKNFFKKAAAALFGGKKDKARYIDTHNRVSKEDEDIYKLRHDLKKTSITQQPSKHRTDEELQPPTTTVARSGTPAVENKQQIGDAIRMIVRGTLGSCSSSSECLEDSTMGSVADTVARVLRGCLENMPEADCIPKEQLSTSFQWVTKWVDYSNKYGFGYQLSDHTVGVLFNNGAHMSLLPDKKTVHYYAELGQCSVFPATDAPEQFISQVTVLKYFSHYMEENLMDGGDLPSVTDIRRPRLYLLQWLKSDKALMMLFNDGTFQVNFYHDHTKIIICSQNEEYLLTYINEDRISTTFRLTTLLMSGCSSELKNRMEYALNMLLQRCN

As usually defined, the IC50 is the concentration that gives 50% inhibition.

For the compound `CC[C@H](C)[C@H](NC(=O)[C@H](C)NC(=O)[C@@H](NC(=O)[C@H](CO)NC(=O)[C@H](Cc1cnc[nH]1)NC(=O)[C@H](CC(C)C)NC(=O)[C@@H]1CCCN1C(=O)[C@@H]1CCCN1C(=O)[C@H](CC(=O)O)NC(=O)[C@H](Cc1ccc(F)cc1)NC(=O)[C@@H](NC(=O)[C@H](CCC(N)=O)NC(C)=O)[C@@H](C)O)[C@@H](C)OP(=O)(O)O)C(=O)N[C@@H](Cc1ccc(O)cc1)C(=O)N[C@@H](C)C(=O)N[C@@H](CC(N)=O)C(N)=O` (Ac-QT[Phe(4-F)]DPPLHS[pT]AIYAN-NH2), the IC50 result in assay [1] and in assay [2] was “Not Active” each time.
As to `CC[C@H](C)[C@H](NC(=O)[C@H](C)NC(=O)[C@@H](NC(=O)[C@H](CO)NC(=O)[C@H](Cc1cnc[nH]1)NC(=O)[C@H](CC(C)C)NC(=O)[C@@H]1CCCN1C(=O)[C@@H]1CCCN1C(=O)[C@H](CC(=O)O)NC(=O)[C@H](Cc1ccc([N+](=O)[O-])cc1)NC(=O)[C@@H](NC(=O)[C@H](CCC(N)=O)NC(C)=O)[C@@H](C)O)[C@@H](C)OP(=O)(O)O)C(=O)N[C@@H](Cc1ccc(O)cc1)C(=O)N[C@@H](C)C(=O)N[C@@H](CC(N)=O)C(N)=O` (Ac-QT[Phe(4-NO2)]DPPLHS[pT]AIYAN-NH2), the IC50 result in assay [1] and in assay [2] was “Not Active” each time.
With `CC[C@H](C)[C@H](NC(=O)[C@H](C)NC(=O)[C@@H](NC(=O)[C@H](CO)NC(=O)[C@H](Cc1cnc[nH]1)NC(=O)[C@H](CC(C)C)NC(=O)[C@@H]1CCCN1C(=O)[C@@H]1CCCN1C(=O)[C@H](CC(=O)O)NC(=O)[C@H](Cc1ccc(Cl)c(Cl)c1)NC(=O)[C@H](CCC(N)=O)NC(C)=O)[C@@H](C)O)C(=O)N[C@@H](Cc1ccc(O)cc1)C(=O)N[C@@H](C)C(=O)N[C@@H](CC(N)=O)C(N)=O` (Ac-Q[Phe(3,4-Cl2)]DPPLHSTAIYAN-NH2), the IC50 result in assay [1] and in assay [2] was “Not Active” in each case.
On to `CC[C@H](C)[C@H](NC(=O)[C@H](C)NC(=O)[C@@H](NC(=O)[C@H](CO)NC(=O)[C@H](Cc1cnc[nH]1)NC(=O)[C@H](CC(C)C)NC(=O)[C@@H]1CCCN1C(=O)[C@@H]1CCCN1C(=O)[C@H](CC(=O)O)NC(=O)[C@H](Cc1ccc(Cl)c(Cl)c1)NC(=O)[C@@H](NC(C)=O)[C@@H](C)O)[C@@H](C)OP(=O)(O)O)C(=O)N[C@@H](Cc1ccc(O)cc1)C(=O)N[C@@H](C)C(=O)N[C@@H](CC(N)=O)C(N)=O` (Ac-T[Phe(3,4-Cl2)]DPPLHS[pT]AIYAN-NH2), for which the concentration for half-maximal inhibition (IC50) entry in assay [1] and in assay [2] was “Not Active” each time.
In the case of `CC[C@H](C)[C@H](NC(=O)[C@H](C)NC(=O)[C@@H](NC(=O)[C@H](CO)NC(=O)[C@H](Cc1cnc[nH]1)NC(=O)[C@H](CC(C)C)NC(=O)[C@@H]1CCCN1C(=O)[C@@H]1CCCN1C(=O)[C@H](CC(=O)O)NC(=O)[C@H](Cc1ccc(Cl)c(Cl)c1)NC(C)=O)[C@@H](C)OP(=O)(O)O)C(=O)N[C@@H](Cc1ccc(O)cc1)C(=O)N[C@@H](C)C(=O)N[C@@H](CC(N)=O)C(N)=O` (Ac-[Phe(3,4-Cl2)]DPPLHS[pT]AIYAN-NH2), the figures for the IC50 result in assay [1] and in assay [2] (read-out: IC50) were “Not Active” and 0.716 µM, respectively.
